Patent US9265748B2, “Anhydrous and hemihydrate crystalline forms of an (R)-baclofen prodrug, methods of synthesis and methods of use” (XenoPort, Inc., priority 2011, dated 2016)
Values belong to the compound of their own block, whether it stands above or below them.

How the values were obtained:
neuropathic pain = settings: intrathecal; spinal-cord injury and multiple sclerosis, painful extremity paresthesias, sympathetically maintained pain; cited from earlier work
musculoskeletal pain = settings: in vivo; cited from earlier work
[1] = system: retching and vomiting induced by morphine; settings: Suzuki et al.; cited from earlier work
[2] = system: emesis induced by nicotine and motion; settings: animal models (Chan et al.); cited from earlier work
[3] = system: allodynia and hyperalgesia; settings: doses lower than those required to produce sedation and impairment of motor activity; cited from earlier work
[4] = Dynamic vapor sorption (hygroscopicity, water content); assay type: physicochemical; settings: for water content at 50% relative humidity / water content at 95% relative humidity: dynamic vapor sorption
Excerpt: In certain embodiments, crystalline (3R)-4-{[(1S)-2-methyl-1-(2-methylpropanoyloxyl)propoxy]carbonylamino}-3-(4-chlorophenyl)butanoic acid hemihydrate is hygroscopic. […] In certain embodiments, crystalline (3R)-4-{[(1S)-2-methyl-1-(2-methylpropanoyloxyl)propoxy]carbonylamino}-3-(4-chlorophenyl)butanoic acid hemihydrate comprises from about 2 wt %-about 3 wt % water. In certain embodiments, crystalline (3R)-4-{[(1S)-2-methyl-1-(2-methylpropanoyloxyl)propoxy]carbonylamino}-3-(4-chlorophenyl)butanoic acid hemihydrate contains about 2.15 wt % water at 50% relative humidity as measured by dynamic vapor sorption. In certain embodiments, crystalline (3R)-4-{[(1S)-2-methyl-1-(2-methylpropanoyloxyl)propoxy]carbonylamino}-3-(4-chlorophenyl)butanoic acid hemihydrate contains about 3 wt % water at 95% relative humidity as measured by dynamic vapor sorption.
In certain embodiments, crystalline (3R)-4-{[(1S)-2-methyl-1-(2-methylpropanoyloxyl)propoxy]carbonylamino}-3-(4-chlorophenyl)butanoic acid anhydrate contains less than about 0.05 wt % water at 50% relative humidity as measured by dynamic vapor sorption. In certain embodiments, crystalline (3R)-4-{[(1S)-2-methyl-1-(2-methylpropanoyloxyl)propoxy]carbonylamino}-3-(4-chlorophenyl)butanoic acid anhydrate contains less than about 0.1 wt % water at 95% relative humidity as measured by dynamic vapor sorption.

[5] = Thermogravimetric analysis (TG-FTIR); assay type: physicochemical; settings: for temperature at which thermal decomposition began slowly: TG-FTIR, 10 K/min, increased strongly above 190° C.
Protocol: Thermogravimetric measurements were carried out with a Netzsch Thermo-Microbalance TG 209 coupled to a Bruker FTIR Spectrometer Vector 22. The sample was contained in sample pans with a pinhole, under a N2 atmosphere. The heating rate was set at 10 K/min. […]

substance addiction = settings: clinical trials: cocaine addiction, methamphetamine dependence, opioid dependence, alcohol craving and intake, nicotine use, drug addiction generally; cited from earlier work
TLESRs = settings: humans; cited from earlier work
[6] = dosed either orally or directly into the colon of a mammal; cited from earlier work
reflux episodes = settings: clinical trials (Castell et al.); cited from earlier work
[7] = Solubility in crystallization solvents; assay type: physicochemical
Excerpt: As used herein, the terms solution and suspension are used interchangeably and are meant to include embodiments in which a compound is in a solvent or solvent mixture regardless of solubility. […] In general, solvent combinations in which a compound is soluble within a first temperature range, and poorly soluble within a second temperature range, can be used in the crystallization methods disclosed herein. Mixtures of a “good” solvent and an “anti-solvent” can also be used with temperature dependent solubilization, i.e., dissolving at elevated temperature and crystallizing at room temperature. Examples of suitable “good” solvents, i.e., solvents in which (3R)-4-{[(1S)-2-methyl-1-(2-methylpropanoyloxyl)propoxy]carbonylamino}-3-(4-chlorophenyl)butanoic acid is soluble, include methanol, ethanol, isopropanol, acetone, methyl isobutyl ketone, tetrahydrofuran, 2-methyl tetrahydrofuran, 1,4-dioxane, 1,2-ethandiol, 1,2-propanediol, 2-methoxyethanol, 2-ethoxyethanol, and a mixture of any of the foregoing.

- hygroscopicity [4]: not hygroscopic
- water content at 50% relative humidity [4]: less than 0.05 wt %
- water content at 95% relative humidity [4]: less than 0.1 wt %
- temperature at which thermal decomposition began slowly [5]: about 170 °C
- weight loss up to 180° C. ([5]; scan rate 10 K/min, N2 atmosphere): very little weight loss
Compound: CC(C)C(=O)O[C@@H](OC(=O)NC[C@H](CC(=O)O)c1ccc(Cl)cc1)C(C)C [(3R)-4-{[(1S)-2-methyl-1-(2-methylpropanoyloxyl)propoxy]carbonylamino}-3-(4-chlorophenyl)butanoic acid anhydrate]

- solubility in "good" solvents ([7]; methanol, ethanol, isopropanol, acetone, methyl isobutyl ketone, tetrahydrofuran, 2-methyl tetrahydrofuran, 1,4-dioxane, 1,2-ethandiol, 1,2-propanediol, 2-methoxyethanol, 2-ethoxyethanol): soluble
- solubility in "anti-solvents" ([7]; water, diethyl ether, diisopropyl ether, methyl t-butyl ether, toluene, chlorobenzene, alkanes, cyclohexane, methylcyclohexane): poor solubility
Compound: CC(C)C(=O)O[C@@H](OC(=O)NC[C@H](CC(=O)O)c1ccc(Cl)cc1)C(C)C [Compound 1, (3R)-4-{[(1S)-2-methyl-1-(2-methylpropanoyloxyl)propoxy]carbonylamino}-3-(4-chlorophenyl)butanoic acid]
- bioavailability as R-baclofen [6]: high bioavailability
- effect on reflux episodes (reflux episodes): reduce reflux episodes

- hygroscopicity [4]: hygroscopic
- water content at 50% relative humidity [4]: about 2.15 wt %
- water content at 95% relative humidity [4]: about 3 wt %
- hygroscopicity above about 60% relative humidity ([4]; above about 60% relative humidity): slightly hygroscopic
- temperature at which thermal decomposition began slowly [5]: about 170 °C
- weight loss up to 170° C. ([5]; scan rate 10 K/min, N2 atmosphere, loss predominantly between 80° C. and 130° C., attributable to water): about 2.1%
Compound: (3R)-4-{[(1S)-2-methyl-1-(2-methylpropanoyloxyl)propoxy]carbonylamino}-3-(4-chlorophenyl)butanoic acid hemihydrate

Further lines, the compound ahead of its results:

Compound: NCC(CC(=O)O)c1ccc(Cl)cc1 (racemic) [baclofen, (±)-4-amino-3-(4-chlorophenyl)butanoic acid]
- efficacy in treating neuropathic pain (neuropathic pain): effective
- efficacy in treating migraine, tension-type headaches, low-back pain and radiculopathy (musculoskeletal pain): effective
- effect on retching and vomiting induced by morphine [1]: suppress the retching and vomiting
- effect on emesis induced by nicotine and motion [2]: antagonize emesis
- effect on allodynia and hyperalgesia [3]: inhibits allodynia and hyperalgesia

Compound: NC[C@H](CC(=O)O)c1ccc(Cl)cc1 [(R)-baclofen, (R)-4-amino-3-(4-chlorophenyl)butanoic acid]
- efficacy in treating addiction (substance addiction): effective
- effect on TLESRs (TLESRs): reduce TLESRs
